Reference: ChEMBL document CHEMBL6092153, “Research progress of BRD4 in head and neck squamous cell carcinoma: Therapeutic application of novel strategies and mechanisms” (Bioorg Med Chem, 2024)

Tests used:
[1] = Antiproliferative activity against human HOC313 cells assessed as reduction in cell viability by MTT assay; type: functional, cell-based
SAS = assay: Antiproliferative activity against human SAS cells assessed as reduction in cell viability by MTT assay; type: functional, cell-based
[2] = Antiproliferative activity against human HaCaT cells assessed as inhibition of cell growth incubated for 48 hrs by SRB assay; type: toxicity, cell-based
FaDu = assay: Antiproliferative activity against human FaDu cells assessed as inhibition of cell growth measured after 72 hrs by CCK-8 assay; type: functional, cell-based
KYSE-150 cell line = assay: Antiproliferative activity against human KYSE-150 cell line assessed as inhibition of cell growth incubated for 48 hrs by CCK-8 assay; type: functional, cell-based; settings: KYSE-150, 48 h
TE-1 = assay: Antiproliferative activity against human TE-1 cells assessed as inhibition of cell growth by MTT assay; type: functional, cell-based
KYSE-140 = assay: Antiproliferative activity against human KYSE-140 cells assessed as inhibition of cell growth by MTT assay; type: functional, cell-based
ECa-109 cell line = assay: Antiproliferative activity against human EC109 cells assessed as reduction in cell viability measured after 48 hrs by CCK-8 method; type: functional, cell-based; settings: ECa-109, 48 h
KYSE-450 = assay: Antiproliferative activity against human KYSE-450 cells assessed as reduction in cell growth incubated for 48 hrs by MTT assay; type: functional, cell-based; settings: KYSE-450, 48 h
KYSE-510 = assay: Antiproliferative activity against human KYSE-510 cells assessed as reduction in cell growth incubated for 48 hrs by MTT assay; type: functional, cell-based; settings: KYSE-510, 48 h

For `Cc1sc2c(c1C)C(c1ccc(Cl)cc1)=N[C@@H](CC(=O)OC(C)(C)C)c1nnc(C)n1-2`, the IC50 [1] was 288 nM, the IC50 (SAS) was 169 nM and the IC50 at 48 h [2] was 320 nM. It also gave an IC50 (FaDu) of 9.64 µM, an IC50 (KYSE-150 cell line) of 55.4 µM and an IC50 (TE-1) of 3.99 µM. For the same compound, the IC50 (KYSE-140) was 4.16 µM, the IC50 (ECa-109 cell line) was 100 nM and the IC50 (KYSE-450) was 124 nM. It also gave an IC50 (KYSE-510) of 121 nM.
